These results are taken from ChEMBL document CHEMBL1125964, “Synthesis and biological activivity of juvenele hormone analogues (JHA) for Trypanosoma cruzi” (1991).

Common to all, as to assay type: functional
Experiment [1] deals with Trypanosoma cruzi. As to the kind of experiment: Compound was evaluated for its percent inhibition of growth of Trypanosoma cruzi at 100 uM/L.
The test system of experiment [2] is Trypanosoma cruzi. Nature of the experiment: Compound was evaluated for its percent inhibition of growth of Trypanosoma cruzi at of 50 uM/L.
Experiment [3] has as its system Trypanosoma cruzi. Nature of the experiment: Compound was evaluated for its percent inhibition of thymidine incorporation in Trypanosoma cruzi without killing the cells at 25 degree Celsius and 100 uM/L.
Experiment [4] deals with Trypanosoma cruzi. Nature of the experiment: Compound was evaluated for its percent inhibition of thymidine incorporation in Trypanosoma cruzi without killing the cells at 25 degree Celsius and 50 uM/L. A general note: Incorporation of labelled thymidine or its analogues reports DNA synthesis.
Experiment [5] concerns Trypanosoma cruzi. As to the kind of experiment: Compound was evaluated for its percent inhibition for thymidine incorporation in Trypanosoma cruzi without killing the cells at 25 degree Celsius and 17 uM/L.

Usually inhibition stands for how much of the control response was suppressed. Low readings indicate a response near the control, high ones a response far below the control. What is called Inhibition is the change of the read-out against control, counted positive when it falls. In the case of `CC(C)=CCC/C(C)=C/CCC(C)OC(=O)OCC(C)C` (stereo unspecified), the inhibition at 100 µM with Trypanosoma cruzi [1] is 89.6%. For the same compound, the inhibition at 50 µM in the experiment with Trypanosoma cruzi [2] is 70.8%. The Inhibition in the experiment on Trypanosoma cruzi [3] came out at 95.8%; with Trypanosoma cruzi [4] it was 73.3%.
For `COC(=O)OC(C)CC/C=C(\C)CCC=C(C)C` (stereo unspecified), in that order: 97.5%, 51%, 91.6% and 75.6%.
The matching figures for `CC/C(C)=C\CC/C(C)=C/CCC(C)OC(=O)OCC(C)C` (stereo unspecified): 68%, 56.6%, 70.8% and 62.8%.
The matching figures for `COC(C)(C)CCCC(C)C/C=C/C(C)=C/C(=O)OC(C)C` (stereo unspecified): 92.5%, 60%, 86.5% and 70.5%.
Take `CC(C)=CCC/C(C)=C/CCCOC(=O)OCC(C)C`: the Inhibition in the experiment with Trypanosoma cruzi [5] is on record as 50.6%; with Trypanosoma cruzi [3], 100.1%; in the experiment on Trypanosoma cruzi [4], 88.4%. The compound further came in with an inhibition at 100 µM with Trypanosoma cruzi [1] of 94%. In the experiment on Trypanosoma cruzi [2], this compound returned an inhibition at 50 µM of 57.3%.
For `CCSC(=O)OC/C=C(\C)CC/C=C(\C)CCC1OC1(C)C` (stereo unspecified), in the experiment with Trypanosoma cruzi [1], testing at 100 µM gave an inhibition of 99%. In the experiment with Trypanosoma cruzi [2], the inhibition at 50 µM came to 90.7%. For the same compound, the Inhibition worked out at 95.6% in the experiment on Trypanosoma cruzi [3] and 80.7% with Trypanosoma cruzi [4].
For `C/C=C\CC/C(C)=C/CCC(C)OC(=O)OCC(C)C` (stereo unspecified), in that order: 75.4%, 47.6%, 89.6% and 70.1%.
For `CC(C)(C)OC(=O)CC(O)COc1ccc(Oc2ccccc2)cc1` (stereo unspecified), in that order: 98.8%, 67.2%, 93.5% and 70.6%.
The matching figures for `CCSC(=O)OC/C=C(\C)CC/C=C(\C)CCC=C(C)C`: 94.2%, 69.3%, 72.6% and 57.9%.
Turning to `C/C(=C\CCC(C)OC(=O)OCC(C)C)CCC1OC1(C)C` (stereo unspecified), 100 µM produced 68% inhibition with Trypanosoma cruzi [1]. For the same compound, testing at 50 µM in the experiment on Trypanosoma cruzi [2] gave an inhibition of 33.4%. In addition, the Inhibition was 70% in the experiment on Trypanosoma cruzi [3] and 50.8% in the experiment on Trypanosoma cruzi [4].
The matching figures for `C=CCOc1ccc(Oc2ccccc2)cc1`: 95.4%, 80.8%, 83.9% and 60.9%.
The matching figures for `CCSC(=O)OC(C)CC/C=C(\C)CC/C=C(/C)CC` (stereo unspecified): 79.4%, 50.7%, 75.2% and 65.3%.
Turning to `COC(=O)OC/C=C(\C)CC/C=C(\C)CCC1OC1(C)C` (stereo unspecified), the inhibition at 100 µM with Trypanosoma cruzi [1] is 62.8%. This compound also displayed an inhibition at 50 µM with Trypanosoma cruzi [2] of 44.8%. Besides, the Inhibition in the experiment with Trypanosoma cruzi [3] is listed as 46.3%; in the experiment with Trypanosoma cruzi [4] it was 25.7%.
As to `COC(=O)OCCC/C=C(\C)CCC=C(C)C`, in the experiment on Trypanosoma cruzi [1], at 100 µM the inhibition was 56%. The same compound had an inhibition at 50 µM with Trypanosoma cruzi [2] of 41.3%. Moreover, the values for the Inhibition in the experiment with Trypanosoma cruzi [3] and in the experiment on Trypanosoma cruzi [4] were 95.3% and 66.3%, respectively.
For `c1ccc(Oc2ccc(OCCOC3CCCCO3)cc2)cc1` (stereo unspecified), in that order: 90.6%, 57%, 86.2% and 40.8%.
